# Tested on: bacteria
# Assay: bacteria growth within chambers of a bacteria culture array with or without ampicillin (FIG. 33)
# Format: cell-based
# Details: chambers that included ampicillin vs chambers without ampicillin; FIG. 33, graph 168
# Source text: Furthermore, the bacteria culture arrays of the present disclosure may be used to assess the effect of drugs on bacteria samples. For instance, single cells of bacteria may be added the chambers of a bacteria culture array, and drugs and/or antimicrobial agents may be added to some or all of the chambers. In other words, single cell bacteria activity may be used to conduct population-based analysis of bacteria samples. With this in mind, FIG. 33 is a graph 168 showing bacteria growth within chambers of a bacteria culture array.
# Visual confirmation of the results shown in the graph 168 were also obtained. FIG. 34 is images […] of the chambers of the bacteria culture array.
structure (smiles),measurement,value
CC1(C)S[C@@H]2[C@H](NC(=O)[C@H](N)c3ccccc3)C(=O)N2[C@H]1C(=O)O [ampicillin],bacteria growth within chambers of a bacteria culture array,hindrance to growth

# — patent publication US10787695B2, “Systems and methods for rapidly sensing microbial metabolism” (General Electric Company, priority 2017, dated 2020)
